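Cells were grown in 96-well plates and exposed to each compound for 48 hours at five concentrations; endpoints were interpolated linearly between bracketing concentrations, or set to the highest concentration if not reached. Abbreviation: GI50, concentration required for 50% inhibition of growth.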 Calls of active or inactive are those of the source. No stated cut-off is given here; in the data, active = GI50 up to about 1.1 µM and inactive = higher.
Experiments:
Assay in all cases: inhibition of tumour cell growth, NCI panel, 48 h
EKVX = test system: EKVX
MDA-MB-435 = test system: MDA-MB-435
T47D = test system: T47D
RXF 393 = test system: RXF 393
HOP-62 = test system: HOP-62
SK-OV-3 = test system: SK-OV-3
OVCAR-4 = test system: OVCAR-4
SK-MEL-2 = test system: SK-MEL-2
Hs-578T = test system: Hs-578T
MDA-N = test system: MDA-N
MCF7 = test system: MCF7
NCI-H460 = test system: NCI-H460
SF-539 = test system: SF-539
NCI/ADR-RES = test system: NCI/ADR-RES
HCT-116 = test system: HCT-116
KM12 = test system: KM12
SK-MEL-5 = test system: SK-MEL-5
HCC 2998 = test system: HCC 2998
NCI-H226 = test system: NCI-H226
SF-268 = test system: SF-268
786-0 = test system: 786-0
OVCAR-3 = test system: OVCAR-3
Malme-3M = test system: Malme-3M
HCT-15 = test system: HCT-15
RPMI-8226 = test system: RPMI-8226
HT-29 = test system: HT-29
MOLT-4 = test system: MOLT-4
COLO 205 = test system: COLO 205
NCI-H23 = test system: NCI-H23
M14 = test system: M14
A549 = test system: A549
OVCAR-5 = test system: OVCAR-5
PC-3 = test system: PC-3
U-251 = test system: U-251
ACHN = test system: ACHN
MDA-MB-231 = test system: MDA-MB-231
UACC-62 = test system: UACC-62
TK-10 = test system: TK-10
IGROV-1 = test system: IGROV-1
DU-145 = test system: DU-145
LOX IMVI = test system: LOX IMVI
HL-60 = test system: HL-60
SF-295 = test system: SF-295
SW-620 = test system: SW-620
SN12C = test system: SN12C
SNB-19 = test system: SNB-19
OVCAR-8 = test system: OVCAR-8
SK-MEL-28 = test system: SK-MEL-28
UACC-257 = test system: UACC-257
UO-31 = test system: UO-31
SR = test system: SR
A498 = test system: A498
HOP-92 = test system: HOP-92
CCRF-CEM = test system: CCRF-CEM
SNB-75 = test system: SNB-75
K562 = test system: K562

Nc1ncnc2c1nnn2C1C=CC(CP(=O)(O)O)C1 (configuration not stated)
GI50 (EKVX): > 100 µM (inactive)
GI50 (MDA-MB-435): > 10 µM (inactive)
GI50 (T47D): > 100 µM (inactive)
GI50 (RXF 393): > 100 µM (inactive)
GI50 (HOP-62): > 100 µM (inactive)
GI50 (SK-OV-3): > 100 µM (inactive)
GI50 (OVCAR-4): > 100 µM (inactive)
GI50 (SK-MEL-2): > 100 µM (inactive)
GI50 (Hs-578T): > 100 µM (inactive)
GI50 (MDA-N): > 100 µM (inactive)
GI50 (MCF7): > 100 µM (inactive)
GI50 (NCI-H460): > 100 µM (inactive)
GI50 (SF-539): > 100 µM (inactive)
GI50 (NCI/ADR-RES): > 100 µM (inactive)
GI50 (HCT-116): > 100 µM (inactive)
GI50 (KM12): > 100 µM (inactive)
GI50 (SK-MEL-5): > 100 µM (inactive)
GI50 (HCC 2998): > 100 µM (inactive)
GI50 (NCI-H226): > 100 µM (inactive)
GI50 (SF-268): > 100 µM (inactive)
GI50 (786-0): > 100 µM (inactive)
GI50 (OVCAR-3): > 100 µM (inactive)
GI50 (Malme-3M): > 100 µM (inactive)
GI50 (HCT-15): > 100 µM
GI50 (RPMI-8226): > 100 µM (inactive)
GI50 (HT-29): > 100 µM (inactive)
GI50 (MOLT-4): > 100 µM (inactive)
GI50 (COLO 205): > 100 µM (inactive)
GI50 (NCI-H23): > 100 µM (inactive)
GI50 (M14): > 100 µM (inactive)
GI50 (A549): > 100 µM (inactive)
GI50 (OVCAR-5): > 100 µM (inactive)
GI50 (PC-3): > 100 µM (inactive)
GI50 (U-251): > 100 µM (inactive)
GI50 (ACHN): > 100 µM (inactive)
GI50 (MDA-MB-231): > 100 µM (inactive)
GI50 (UACC-62): > 100 µM (inactive)
GI50 (TK-10): > 100 µM (inactive)
GI50 (IGROV-1): > 100 µM (inactive)
GI50 (DU-145): > 100 µM (inactive)
GI50 (LOX IMVI): > 100 µM (inactive)
GI50 (HL-60): > 100 µM (inactive)
GI50 (SF-295): > 100 µM (inactive)
GI50 (SW-620): > 100 µM (inactive)
GI50 (SN12C): > 100 µM (inactive)
GI50 (SNB-19): > 100 µM (inactive)
GI50 (OVCAR-8): > 100 µM (inactive)
GI50 (SK-MEL-28): > 100 µM (inactive)
GI50 (UACC-257): > 100 µM (inactive)
GI50 (UO-31): > 100 µM (inactive)

C=CCC(C)C12CCNC(Cc3ccc(O)cc31)C2C (configuration not stated)
GI50 (SR): 82.4 µM (inactive)
GI50 (EKVX): > 100 µM (inactive)
GI50 (MDA-MB-435): > 100 µM (inactive)
GI50 (T47D): > 100 µM (inactive)
GI50 (A498): 43.6 µM (inactive)
GI50 (RXF 393): > 100 µM (inactive)
GI50 (HOP-62): > 100 µM (inactive)
GI50 (SK-OV-3): > 100 µM (inactive)
GI50 (OVCAR-4): > 100 µM (inactive)
GI50 (Hs-578T): 82.8 µM (inactive)
GI50 (MCF7): > 100 µM (inactive)
GI50 (NCI-H460): 89.9 µM (inactive)
GI50 (SF-539): > 100 µM (inactive)
GI50 (NCI/ADR-RES): > 100 µM (inactive)
GI50 (HCT-116): > 100 µM (inactive)
GI50 (KM12): > 100 µM (inactive)
GI50 (HOP-92): 56.1 µM (inactive)
GI50 (SK-MEL-5): > 100 µM (inactive)
GI50 (HCC 2998): 51.1 µM (inactive)
GI50 (NCI-H226): > 100 µM (inactive)
GI50 (SF-268): > 100 µM (inactive)
GI50 (786-0): > 100 µM (inactive)
GI50 (Malme-3M): > 100 µM (inactive)
GI50 (HCT-15): > 100 µM
GI50 (RPMI-8226): > 100 µM (inactive)
GI50 (HT-29): 79.1 µM (inactive)
GI50 (MOLT-4): 84.5 µM (inactive)
GI50 (COLO 205): > 100 µM (inactive)
GI50 (NCI-H23): > 100 µM (inactive)
GI50 (CCRF-CEM): > 100 µM (inactive)
GI50 (M14): 64.4 µM (inactive)
GI50 (A549): > 100 µM (inactive)
GI50 (OVCAR-5): > 100 µM (inactive)
GI50 (SNB-75): > 100 µM (inactive)
GI50 (U-251): > 100 µM (inactive)
GI50 (ACHN): > 100 µM (inactive)
GI50 (MDA-MB-231): > 100 µM (inactive)
GI50 (UACC-62): > 100 µM (inactive)
GI50 (TK-10): > 100 µM (inactive)
GI50 (IGROV-1): > 100 µM (inactive)
GI50 (DU-145): > 100 µM (inactive)
GI50 (LOX IMVI): > 100 µM (inactive)
GI50 (HL-60): > 10 µM (inactive)
GI50 (SF-295): > 100 µM (inactive)
GI50 (SW-620): > 100 µM (inactive)
GI50 (K562): 41.3 µM (inactive)
GI50 (SN12C): > 100 µM (inactive)
GI50 (SNB-19): > 100 µM (inactive)
GI50 (OVCAR-8): > 100 µM (inactive)
GI50 (SK-MEL-28): > 100 µM (inactive)
GI50 (UACC-257): 66.2 µM (inactive)
GI50 (UO-31): 38.6 µM (inactive)

CC(=O)O[C@H]1C(=O)[C@@]2(C)C(C(OC(=O)c3ccccc3)[C@]3(O)CC(OC(=O)[C@H](OC(=O)CCC(=O)O)C(NC(=O)c4ccccc4)c4ccccc4)C(C)=C1C3(C)C)C1(OC(C)=O)COC1C[C@@H]2OC(=O)CCC(=O)O (some centres not stated)
GI50 (T47D): 0.822 µM (active)
GI50 (OVCAR-4): > 79.4 µM (inactive)
GI50 (Malme-3M): 11.6 µM (inactive)
GI50 (SK-MEL-28): 5.6 µM (inactive)
GI50 (UO-31): 83.9 µM (inactive)
